Measured values reported in patent publication US9315520B2, “2-amino-6-methyl-4,4a,5,6-tetrahydropyrano[3,4-d][1,3]thiazin-8a(8H)-yl-1,3-thiazol-4-yl amides” (Pfizer Inc., priority 2014, dated 2016).
Counter-ions that a name gives are not always drawn.

Molecular target: BACE1 (Homo sapiens (Human), UniProt P56817)
Experiment: BACE1 Cell-Free Assay (fluorescence polarization)
Format: biochemical
Settings: geometric mean of 2-4 determinations unless otherwise indicated (b: ≧5; c: single determination); read-out: BACE1 Cell-free Assay IC50
Source text: This assay measures the inhibition of the beta-secretase enzyme as it cleaves a non-native peptide.
A synthetic APP substrate that can be cleaved by beta-secretase having N-terminal biotin and made fluorescent by the covalent attachment of Oregon Green at the Cys residue is used to assay beta-secretase activity in the presence or absence of the inhibitory compounds. […] The BACE1 enzyme is affinity purified material from conditioned media of CHO-K1 cells that have been transfected with a soluble BACE construct (BACE1deltaTM96His). […] Plates are covered and incubated for 3 hours at 37° C. […] The activity of the beta-secretase enzyme is detected by changes in the fluorescence polarization that occur when the substrate is cleaved by the enzyme.

BACE1, sequence (P56817 46-457): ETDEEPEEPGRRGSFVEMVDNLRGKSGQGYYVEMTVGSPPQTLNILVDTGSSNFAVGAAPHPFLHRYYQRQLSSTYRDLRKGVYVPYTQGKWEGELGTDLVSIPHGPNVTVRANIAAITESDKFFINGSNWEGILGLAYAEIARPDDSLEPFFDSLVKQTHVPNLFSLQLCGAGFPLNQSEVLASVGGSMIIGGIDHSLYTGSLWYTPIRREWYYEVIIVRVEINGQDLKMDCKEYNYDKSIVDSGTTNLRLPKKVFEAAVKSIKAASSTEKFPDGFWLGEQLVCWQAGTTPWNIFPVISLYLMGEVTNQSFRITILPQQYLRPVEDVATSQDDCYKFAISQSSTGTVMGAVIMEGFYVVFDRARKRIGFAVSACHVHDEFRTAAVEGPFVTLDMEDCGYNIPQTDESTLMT

| SMILES | IC50 |
| --- | --- |
| C[C@H]1C[C@H]2CSC(N)=N[C@@]2(c2nc(NC(=O)c3ccc(OCF)cn3)cs2)CO1 [Example 26, N-{2-[(4aR,6S,8aR)-2-amino-6-methyl-4,4a,5,6-tetrahydropyrano[3,4-d][1,3]thiazin-8a(8H)-yl]-1,3-thiazol-4-yl}-5-(fluoromethoxy)pyridine-2-carboxamide] | 68 nM |
| C[C@H]1C[C@H]2CSC(N)=N[C@@]2(c2nc(NC(=O)c3coc(C4CC4)n3)cs2)CO1 [Example 27, N-{2-[(4aR,6S,8aR)-2-amino-6-methyl-4,4a,5,6-tetrahydropyrano[3,4-d][1,3]thiazin-8a(8H)-yl]-1,3-thiazol-4-yl}-2-cyclopropyl-1,3-oxazole-4-carboxamide] | 1310 nM |
| C[C@H]1C[C@H]2CSC(N)=N[C@@]2(c2nc(NC(=O)c3cnccn3)cs2)CO1 [Example 28, N-{2-[(4aR,6S,8aR)-2-amino-6-methyl-4,4a,5,6-tetrahydropyrano[3,4-d][1,3]thiazin-8a(8H)-yl]-1,3-thiazol-4-yl}pyrazine-2-carboxamide] | 647 nM |
| Cc1nn(C)cc1C(=O)Nc1csc([C@]23CO[C@@H](C)C[C@H]2CSC(N)=N3)n1 [Example 29, N-{2-[(4aR,6S,8aR)-2-amino-6-methyl-4,4a,5,6-tetrahydropyrano[3,4-d][1,3]thiazin-8a(8H)-yl]-1,3-thiazol-4-yl}-1,3-dimethyl-1H-pyrazole-4-carboxamide] | 1990 nM |
| C[C@H]1C[C@H]2CSC(N)=N[C@@]2(c2nc(NC(=O)c3cccnn3)cs2)CO1 [Example 30, N-{2-[(4aR,6S,8aR)-2-amino-6-methyl-4,4a,5,6-tetrahydropyrano[3,4-d][1,3]thiazin-8a(8H)-yl]-1,3-thiazol-4-yl}pyridazine-3-carboxamide] | 2160 nM |
| C[C@H]1C[C@H]2CSC(N)=N[C@@]2(c2nc(NC(=O)c3cc(C4CC4)on3)cs2)CO1 [Example 31, N-{2-[(4aR,6S,8aR)-2-amino-6-methyl-4,4a,5,6-tetrahydropyrano[3,4-d][1,3]thiazin-8a(8H)-yl]-1,3-thiazol-4-yl}-5-cyclopropyl-1,2-oxazole-3-carboxamide] | 3820 nM |
| C[C@H]1C[C@H]2CSC(N)=N[C@@]2(c2nc(NC(=O)c3cc(C(F)(F)F)on3)cs2)CO1 [Example 32, N-{2-[(4aR,6S,8aR)-2-amino-6-methyl-4,4a,5,6-tetrahydropyrano[3,4-d][1,3]thiazin-8a(8H)-yl]-1,3-thiazol-4-yl}-5-(trifluoromethyl)-1,2-oxazole-3-carboxamide, trifluoroacetate salt] | 1400 nM |
| C[C@H]1C[C@H]2CSC(N)=N[C@@]2(c2nc(NC(=O)c3cn(C4CCC4)cn3)cs2)CO1 [Example 33, N-{2-[(4aR,6S,8aR)-2-amino-6-methyl-4,4a,5,6-tetrahydropyrano[3,4-d][1,3]thiazin-8a(8H)-yl]-1,3-thiazol-4-yl}-1-cyclobutyl-1H-imidazole-4-carboxamide] | 34100 nM |
| C[C@H]1C[C@H]2CSC(N)=N[C@@]2(c2nc(NC(=O)c3cc(C4CCC4)nn3C)cs2)CO1 [Example 34, N-{2-[(4aR,6S,8aR)-2-amino-6-methyl-4,4a,5,6-tetrahydropyrano[3,4-d][1,3]thiazin-8a(8H)-yl]-1,3-thiazol-4-yl}-3-cyclobutyl-1-methyl-1H-pyrazole-5-carboxamide] | 1480 nM |
| COCc1cc(C(=O)Nc2csc([C@]34CO[C@@H](C)C[C@H]3CSC(N)=N4)n2)no1 [Example 35, N-{2-[(4aR,6S,8aR)-2-amino-6-methyl-4,4a,5,6-tetrahydropyrano[3,4-d][1,3]thiazin-8a(8H)-yl]-1,3-thiazol-4-yl}-5-(methoxymethyl)-1,2-oxazole-3-carboxamide] | 5860 nM |
| C[C@H]1C[C@H]2CSC(N)=N[C@@]2(c2nc(NC(=O)c3ccc(=O)n(C)c3)cs2)CO1 [Example 36, N-{2-[(4aR,6S,8aR)-2-amino-6-methyl-4,4a,5,6-tetrahydropyrano[3,4-d][1,3]thiazin-8a(8H)-yl]-1,3-thiazol-4-yl}-1-methyl-6-oxo-1,6-dihydropyridine-3-carboxamide] | 1410 nM |
| Cc1nc(C(=O)Nc2csc([C@]34CO[C@@H](C)C[C@H]3CSC(N)=N4)n2)c(C(F)(F)F)o1 [Example 38, N-{2-[(4aR,6S,8aR)-2-amino-6-methyl-4,4a,5,6-tetrahydropyrano[3,4-d][1,3]thiazin-8a(8H)-yl]-1,3-thiazol-4-yl}-2-methyl-5-(trifluoromethyl)-1,3-oxazole-4-carboxamide, trifluoroacetate salt] | 145 nM |
| Cc1cc(C(=O)Nc2csc([C@]34CO[C@@H](C)C[C@H]3CSC(N)=N4)n2)n(C)n1 [Example 41, N-{2-[(4aR,6S,8aR)-2-amino-6-methyl-4,4a,5,6-tetrahydropyrano[3,4-d][1,3]thiazin-8a(8H)-yl]-1,3-thiazol-4-yl}-1,3-dimethyl-1H-pyrazole-5-carboxamide, trifluoroacetate salt] | 364 nM |
| CCc1nc(C(=O)Nc2csc([C@]34CO[C@@H](C)C[C@H]3CSC(N)=N4)n2)co1 [Example 42, N-{2-[(4aR,6S,8aR)-2-amino-6-methyl-4,4a,5,6-tetrahydropyrano[3,4-d][1,3]thiazin-8a(8H)-yl]-1,3-thiazol-4-yl}-2-ethyl-1,3-oxazole-4-carboxamide, trifluoroacetate salt] | 341 nM |
| C[C@H]1C[C@H]2CSC(N)=N[C@@]2(c2nc(NC(=O)c3ncn(C)n3)cs2)CO1 [Example 43, N-{2-[(4aR,6S,8aR)-2-amino-6-methyl-4,4a,5,6-tetrahydropyrano[3,4-d][1,3]thiazin-8a(8H)-yl]-1,3-thiazol-4-yl}-1-methyl-1H-1,2,4-triazole-3-carboxamide, trifluoroacetate salt] | 435 nM |
| C[C@H]1C[C@H]2CSC(N)=N[C@@]2(c2nc(NC(=O)c3ccc(OC(C)(F)F)cn3)cs2)CO1 [Example 44, N-{2-[(4aR,6S,8aR)-2-amino-6-methyl-4,4a,5,6-tetrahydropyrano[3,4-d][1,3]thiazin-8a(8H)-yl]-1,3-thiazol-4-yl}-5-(1,1-difluoroethoxy)pyridine-2-carboxamide] | 185 nM |
| COc1cnc(C(=O)Nc2csc([C@]34CO[C@@H](C)C[C@H]3CSC(N)=N4)n2)c(C)n1 [Example 46, N-{2-[(4aR,6S,8aR)-2-amino-6-methyl-4,4a,5,6-tetrahydropyrano[3,4-d][1,3]thiazin-8a(8H)-yl]-1,3-thiazol-4-yl}-5-methoxy-3-methylpyrazine-2-carboxamide] | 320 nM |
| COc1cnc(C(=O)Nc2csc([C@]34CO[C@@H](C)C[C@H]3CSC(N)=N4)n2)c(C)c1 [Example 47, N-{2-[(4aR,6S,8aR)-2-amino-6-methyl-4,4a,5,6-tetrahydropyrano[3,4-d][1,3]thiazin-8a(8H)-yl]-1,3-thiazol-4-yl}-5-methoxy-3-methylpyridine-2-carboxamide] | 101 nM |
| C[C@H]1C[C@H]2CSC(N)=N[C@@]2(c2nc(NC(=O)c3ccc(OC(F)F)nc3)cs2)CO1 [Example 48, N-{2-[(4aR,6S,8aR)-2-amino-6-methyl-4,4a,5,6-tetrahydropyrano[3,4-d][1,3]thiazin-8a(8H)-yl]-1,3-thiazol-4-yl}-6-(difluoromethoxy)pyridine-3-carboxamide] | 232 nM |
| Cc1nc(C(=O)Nc2csc([C@]34CO[C@@H](C)C[C@H]3CSC(N)=N4)n2)co1 [Example 49, N-{2-[(4aR,6S,8aR)-2-amino-6-methyl-4,4a,5,6-tetrahydropyrano[3,4-d][1,3]thiazin-8a(8H)-yl]-1,3-thiazol-4-yl}-2-methyl-1,3-oxazole-4-carboxamide] | 103 nM |
| C[C@H]1C[C@H]2CSC(N)=N[C@@]2(c2nc(NC(=O)c3coc(C(F)(F)F)n3)cs2)CO1 [Example 50, N-{2-[(4aR,6S,8aR)-2-amino-6-methyl-4,4a,5,6-tetrahydropyrano[3,4-d][1,3]thiazin-8a(8H)-yl]-1,3-thiazol-4-yl}-2-(trifluoromethyl)-1,3-oxazole-4-carboxamide] | 189 nM |
| Cc1noc(C(=O)Nc2csc([C@]34CO[C@@H](C)C[C@H]3CSC(N)=N4)n2)n1 [Example 51, N-{2-[(4aR,6S,8aR)-2-amino-6-methyl-4,4a,5,6-tetrahydropyrano[3,4-d][1,3]thiazin-8a(8H)-yl]-1,3-thiazol-4-yl}-3-methyl-1,2,4-oxadiazole-5-carboxamide] | 98 nM |

Same assay, conditions: read-out: BACE1 Cell-free Assay IC50

| SMILES | IC50 |
| --- | --- |
| C[C@H]1C[C@H]2CSC(N)=N[C@@]2(c2nc(NC(=O)c3ccc(OCC(F)F)cn3)cs2)CO1 [Example 37, N-{2-[(4aR,6S,8aR)-2-amino-6-methyl-4,4a,5,6-tetrahydropyrano[3,4-d][1,3]thiazin-8a(8H)-yl]-1,3-thiazol-4-yl}-5-(2,2-difluoroethoxy)pyridine-2-carboxamide, formate salt] | 485 nM |
| CCc1cc(C(=O)Nc2csc([C@]34CO[C@@H](C)C[C@H]3CSC(N)=N4)n2)n(C)n1 [Example 39, N-{2-[(4aR,6S,8aR)-2-amino-6-methyl-4,4a,5,6-tetrahydropyrano[3,4-d][1,3]thiazin-8a(8H)-yl]-1,3-thiazol-4-yl}-3-ethyl-1-methyl-1H-pyrazole-5-carboxamide, trifluoroacetate salt] | 369 nM |
| C[C@H]1C[C@H]2CSC(N)=N[C@@]2(c2nc(NC(=O)c3cnn(C)n3)cs2)CO1 [Example 40, N-{2-[(4aR,6S,8aR)-2-amino-6-methyl-4,4a,5,6-tetrahydropyrano[3,4-d][1,3]thiazin-8a(8H)-yl]-1,3-thiazol-4-yl}-2-methyl-2H-1,2,3-triazole-4-carboxamide, trifluoroacetate salt] | 134 nM |
